Measured values as given in patent publication US20120156333A1, “STABILIZED BETA CRYPTOXANTHIN-CONTAINING WATER AND THE USE THEREOF” (ARKRAY, INC., priority 2010, published 2012).

What was measured:
[1] = β cryptoxanthin stabilizing test, Example 3A (water from Citrus unshiu concentrated liquid with additive L-ascorbic acid, stored at 40° C.); type: physicochemical; details: 0.0015 parts by mass β cryptoxanthin (concentrated liquid) in water
Protocol: The prepared concentrated liquid derived from Citrus unshiu and water were mixed. Thus, a mixed solution was prepared. The mixing was conducted so that a mass ratio between β cryptoxanthin contained in the concentrated liquid and the mixed water became […] (0.0015 parts by mass of β cryptoxanthin with respect to 100 parts by mass of finally obtained β cryptoxanthin-containing water). Vitamin C (L-ascorbic acid) was added to the mixed solution, which was then mixed by stirring. Thus, β cryptoxanthin-containing waters were prepared. The total amounts of L-ascorbic acid in the respective β cryptoxanthin-containing waters were set to 0.005, 0.01, 0.02, 0.1, and 0.2 parts by mass with respect to 100 parts by mass of entire β cryptoxanthin-containing water by adding vitamin C. 50 g of five types of the β cryptoxanthin-containing waters were filled in the respective brown bottles. Thereafter, the brown bottles were subjected to a heat sterilization treatment under the condition at 90° C. for 30 minutes, which were then stored at 40° C. Sampling was conducted on a storage start date and after two months from the same. The respective amounts of β cryptoxanthin in samples were measured in the same manner as in Example 1A. Then, assuming that the amount of β cryptoxanthin on the storage start date was 100%, residual ratios of β cryptoxanthin were determined.

[2] = Storage stability at 20° C. and 25° C. calculated by Arrhenius equation, Example 4B; type: physicochemical; details: for possible storage period in a stable state: β cryptoxanthin-containing waters of Examples 1B, 2B, and 3B
Protocol: With respect to the β cryptoxanthin-containing waters prepared in Examples 1B, 2B, and 3B, storage stability at 20° C. and 25° C. was determined. Determination of the storage stability was performed in the same manner as in Example 4A.

[3] = compound of structural formula (1); stated as known; cited from earlier work
[4] = β cryptoxanthin stabilizing test, Example 2B (water from powder, varied β cryptoxanthin concentration, stored at 45° C.); type: physicochemical
Protocol: The prepared powder derived from Citrus unshiu and water were mixed. Thus, β cryptoxanthin-containing waters were prepared. In the mixing, concentrations of the β cryptoxanthin were set to predetermined parts by mass with respect to 100 parts by mass of a combination of the water and components contained in the water. The predetermined parts by mass were 0.0005, 0.0010, 0.0022, 0.0031, 0.0060, and 0.0079 parts by mass. Thus, six types of β cryptoxanthin-containing waters each having a different concentration of the β cryptoxanthin were prepared. Each of the β cryptoxanthin-containing waters was sufficiently stirred. Thereafter 90 g of the resultant β cryptoxanthin-containing water was filled in an aluminum pouch, which was then sterilized under the condition at 85° C. for 30 minutes. Six types of the β cryptoxanthin-containing waters of the example were stored at 45° C. for one month. Sampling was conducted on a storage start date and after one month from the storage start date. The respective amounts of β cryptoxanthin in samples were measured by HPLC in the same manner as in Example 1B. Then, assuming that the amount of β cryptoxanthin on the storage start date was 100%, residual ratios of β cryptoxanthin were determined.

[5] = β cryptoxanthin stabilizing test, Example 1A (water from Citrus unshiu paste with additive L-ascorbic acid, stored at 40° C.); type: physicochemical; details: 0.002 parts by mass β cryptoxanthin (paste) in water
Protocol: The prepared paste derived from Citrus unshiu and water were mixed. Thus, a mixed solution was prepared. The mixing was conducted so that a mass ratio between β cryptoxanthin contained in the paste and the mixed water became 1 mg:50 g (0.002 parts by mass of β cryptoxanthin with respect to 100 parts by mass of finally obtained β cryptoxanthin-containing water). Vitamin C (L-ascorbic acid) was added to the mixed solution, which was then mixed by stirring. Thus, β cryptoxanthin-containing waters were prepared. The total amounts of L-ascorbic acid in the respective β cryptoxanthin-containing waters were set to 0.005, 0.01, 0.02, 0.05, 0.1, and 0.2 parts by mass with respect to 100 parts by mass of entire β cryptoxanthin-containing water by adding vitamin C. As a blank, a β cryptoxanthin-containing water was prepared in the same manner as described above except that vitamin C (L-ascorbic acid) was not added to the mixed solution. 50 g of six types of the β cryptoxanthin-containing waters and 50 g of the f3-cryptoxanthin-containing water as a blank were filled in the respective brown bottles. Thereafter, the brown bottles were subjected to a heat sterilization treatment under the condition at 90° C. for 30 minutes, which were then stored at 40° C. Sampling was conducted on a storage start date, after one month from the storage start date, and after two months from the same. The respective amounts of β cryptoxanthin in samples were measured by HPLC as shown below. Then, assuming that the amount of β cryptoxanthin on the storage start date was 100%, residual ratios of β cryptoxanthin were determined. The samples were treated at 70° C. for 30 minutes under alkaline conditions before being subjected to HPLC. By this treatment, β cryptoxanthin in the samples was saponified and was converted to a free form. After the treatment, the samples were subjected to a liquid-liquid extraction and were then concentrated. Thus, samples for HPLC were obtained. In the measurements of the amounts of β cryptoxanthin by HPLC, a HPLC system to which a column (J'sphere ODS-M80 (product name) with 250×4.6 mm I.D, produced by YMC Co., Ltd.) had been connected was used, and absorbances at 455 nm were measured by a UV detector ([…] (product name), produced by Hitachi Ltd.). Conditions of the column were as follows. • Mobile phase: acetonitrile/tetrahydrofuran (volume ratio: 95/5) containing 0.1% acetic acid and 50 ppm of α-tocopherol • Flow rate: 1.0 mL/minute • Column temperature: 55° C.

[6] = additive L-ascorbic acid 0.005 parts by mass
[7] = additive L-ascorbic acid 0.01 parts by mass
[8] = additive L-ascorbic acid 0.02 parts by mass
[9] = additive L-ascorbic acid 0.1 parts by mass
[10] = additive L-ascorbic acid 0.2 parts by mass
[11] = additive L-ascorbic acid 0 parts by mass (blank)
[12] = additive L-ascorbic acid 0.05 parts by mass

In the case of `CC1=C(/C=C/C(C)=C/C=C/C(C)=C/C=C/C=C(C)/C=C/C=C(C)/C=C/C2=C(C)C[C@@H](O)CC2(C)C)C(C)(C)CCC1` [β cryptoxanthin], the “Residual ratio of β cryptoxanthin Storage for two months (%)” value (“Residual ratio … for two months (%)” for short) [1, 6] is reported as 64.3%, the “Residual ratio … for two months (%)” value [1, 7] is reported as 64.9% and the “Residual ratio … for two months (%)” value [1, 8] is reported as 99.1%. The “Residual ratio … for two months (%)” value [1, 9] was 100%, the “Residual ratio … for two months (%)” value [1, 10] was 37.9% and the “storage in a stable state at normal temperature” value ([2]; Example 4B, normal temperature (20° C. to 25° C.)) was “two years or more”. The “possible storage period in a stable state” value ([2]; 20° C.) was “about 32.7 months”, the “possible storage period in a stable state” value ([2]; 25° C.) was “about 15.6 months” and the solubility in water [3] was “poorly soluble in water”. For the same molecule, the “Residual ratio of β cryptoxanthin Storage for one month (%)” value (“Residual ratio … for one month (%)” below) ([4]; β cryptoxanthin 0.0005 parts by mass (powder) in water) was 5.3%, the “Residual ratio … for one month (%)” value ([4]; β cryptoxanthin 0.0010 parts by mass (powder) in water) was 45.6% and the “Residual ratio … for one month (%)” value ([4]; β cryptoxanthin 0.0022 parts by mass (powder) in water) was 75.5%. The “Residual ratio … for one month (%)” value ([4]; β cryptoxanthin 0.0031 parts by mass (powder) in water) was 82.4%, the “Residual ratio … for one month (%)” value ([4]; β cryptoxanthin 0.0060 parts by mass (powder) in water) was 97.9% and the “Residual ratio … for one month (%)” value ([4]; β cryptoxanthin 0.0079 parts by mass (powder) in water) was 101.1%. The “Residual ratio … for one month (%)” value [5, 11] was 76.9%, the “Residual ratio … for two months (%)” value [5, 11] was 29.9% and the “Residual ratio … for one month (%)” value [5, 6] was 83.8%. For the same molecule, the “Residual ratio … for two months (%)” value [5, 6] was 48.8%, the “Residual ratio … for one month (%)” value [5, 7] was 96.7% and the “Residual ratio … for two months (%)” value [5, 7] was 78.9%. The “Residual ratio … for one month (%)” value [5, 8] was 100%, the “Residual ratio … for two months (%)” value [5, 8] was 100% and the “Residual ratio … for one month (%)” value [5, 12] was 98.0%. For the same molecule, the “Residual ratio … for two months (%)” value [5, 12] was 99.0%, the “Residual ratio … for one month (%)” value [5, 9] was 94.4% and the “Residual ratio … for two months (%)” value [5, 9] was 94.7%. The “Residual ratio … for one month (%)” value [5, 10] was 68.3% and the “Residual ratio … for two months (%)” value [5, 10] was 31.3%.
